Measurements: article PMC9521027 (ACS Omega, 2022)
Substitutions are numbered along the chain they refer to.

Assays:
URAT1 K393D mutant = target: T1, URAT1 K393D mutant (Homo sapiens, UniProt Q96S37, K393D); assay: 14C-uric acid uptake assay in transfected HEK293 cells; format: cell-based
T1 sequence (Q96S37 1-553 K393D): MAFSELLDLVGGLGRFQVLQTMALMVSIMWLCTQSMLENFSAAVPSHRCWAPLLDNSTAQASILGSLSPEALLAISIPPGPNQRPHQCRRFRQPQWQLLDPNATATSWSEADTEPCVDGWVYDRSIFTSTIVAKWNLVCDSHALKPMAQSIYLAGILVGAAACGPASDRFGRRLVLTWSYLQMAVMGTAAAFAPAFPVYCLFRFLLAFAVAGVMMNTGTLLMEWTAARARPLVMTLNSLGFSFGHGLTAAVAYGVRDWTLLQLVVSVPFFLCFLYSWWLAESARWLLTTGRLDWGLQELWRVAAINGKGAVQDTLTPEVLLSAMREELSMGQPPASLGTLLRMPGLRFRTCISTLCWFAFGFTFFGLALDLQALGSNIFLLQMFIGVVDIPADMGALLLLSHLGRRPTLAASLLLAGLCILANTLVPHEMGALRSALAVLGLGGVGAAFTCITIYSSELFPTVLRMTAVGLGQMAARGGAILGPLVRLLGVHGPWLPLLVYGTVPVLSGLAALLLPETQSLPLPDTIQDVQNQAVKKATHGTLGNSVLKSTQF

URAT1 K393A mutant = target: T2, URAT1 K393A mutant (Homo sapiens, UniProt Q96S37, K393A); assay: as above; format: cell-based
T2 sequence (Q96S37 1-553 K393A): T1 sequence (Q96S37 1-553 K393D) with D393A

wild-type hURAT1 = target: T3, wild-type hURAT1 (Homo sapiens, UniProt Q96S37); assay: cell-based
T3 sequence (Q96S37 1-553): T1 sequence (Q96S37 1-553 K393D) with D393K

URAT1 K393R mutant [1] = target: T4, URAT1 K393R mutant (Homo sapiens, UniProt Q96S37, K393R); assay: 14C-uric acid binding assay with membrane protein; settings: 1 μM BM, 1 μM verinurad, 10 μM lesinurad, 20 μM probenecid, 30 min, 25 μM 14C-uric acid
T4 sequence (Q96S37 1-553 K393R): T1 sequence (Q96S37 1-553 K393D) with D393R

URAT1 K393R mutant [2] = target: T4, URAT1 K393R mutant; assay: 14C-uric acid uptake assay in transfected HEK293 cells; format: cell-based
URAT1 K393E mutant = target: T5, URAT1 K393E mutant (Homo sapiens, UniProt Q96S37, K393E); assay: as above; format: cell-based
T5 sequence (Q96S37 1-553 K393E): T1 sequence (Q96S37 1-553 K393D) with D393E

URAT1 K393H mutant [3] = target: T6, URAT1 K393H mutant (Homo sapiens, UniProt Q96S37, K393H); assay: 14C-uric acid binding assay with membrane protein; settings: 1 μM BM, 1 μM verinurad, 10 μM lesinurad, 20 μM probenecid, 30 min, 25 μM 14C-uric acid
T6 sequence (Q96S37 1-553 K393H): T1 sequence (Q96S37 1-553 K393D) with D393H

URAT1 K393H mutant [4] = target: T6, URAT1 K393H mutant; assay: 14C-uric acid uptake assay in transfected HEK293 cells; format: cell-based

IC50 (URAT1 K393D mutant): 440 ± 210 nM | IC50 (URAT1 K393A mutant): 420 ± 260 nM | IC50 (wild-type hURAT1): 290 ± 120 nM | Effect of inhibitor on 14C-uric acid binding compared with WT group (URAT1 K393R mutant [1]): similar | IC50 (URAT1 K393R mutant [2]): 310 ± 290 nM | IC50 (URAT1 K393E mutant): 360 ± 220 nM | Effect of inhibitor on 14C-uric acid binding compared with WT group (URAT1 K393H mutant [3]): similar | IC50 (URAT1 K393H mutant [4]): 490 ± 240 nM
Compound: CC(C)(Sc1ccncc1-c1ccc(C#N)c2ccccc12)C(=O)O [verinurad]
